From ChEMBL document CHEMBL3616454, “Synthesis and antiviral activity of some new bis-1,3-thiazole derivatives” (Eur J Med Chem, 2015)
≈ marks a conversion by molar mass, not a printed value.

What was measured:
[1] = Antiviral activity against Influenza A virus (A/California/07/2009(H1N1) infected in MDCK cell line assessed as reduction of virus induced cytopathic effect by visual assay; type: functional, cell-based
[2] = Cytotoxicity against MDCK cells assessed as cell viability by visual assay; type: cell-based, Canis lupus familiaris; details: dog
[3] = Selectivity index, ratio of CC50 for MDCK cells by visual method to EC50 for Influenza A virus (A/California/07/2009(H1N1) virus by visual method; type: toxicity, cell-based; details: dog, read-out: Ratio CC50/EC50
[4] = Selectivity index, ratio of CC50 for MDCK cells by neutral red method to EC50 for Influenza A virus (A/California/07/2009(H1N1) virus by neutral red method; type: toxicity, cell-based; details: dog, read-out: Ratio CC50/EC50
[5] = Cytotoxicity against MDCK cells assessed as cell viability by neutral red assay; type: cell-based, Canis lupus familiaris; details: dog
[6] = Antiviral activity against Influenza A virus (A/California/07/2009(H1N1)) infected in MDCK cell line assessed as reduction of virus induced cytopathic effect by neutral red assay; type: functional, cell-based
[7] = Selectivity index, ratio of CC50 for luciferase expressing Huh/NeoET cells to EC50 for Hepatitis C virus 1b CON1; type: toxicity, cell-based; details: human, read-out: Ratio CC50/EC50
Hepatitis C virus [8] = test: Antiviral activity against Hepatitis C virus 1b CON1 infected in human Huh/NeoET cells expressing luciferase assessed as reduction of virus induced cytopathic effect by luciferse reporter assay; type: functional, cell-based, Hepacivirus hominis; details: genotype 1b Con1, Huh/NeoET
[9] = Cytotoxicity against human Huh/NeoET cells assessed as cell viability by cytoTox1 cell proliferation assay; type: cell-based
[10] = Selectivity index, ratio of CC50 for human HuH7 cells to EC50 for Hepatitis C virus 1a H77; type: toxicity, cell-based, Huh-7; details: read-out: Ratio CC50/EC50
[11] = Selectivity index, ratio of CC50 for human HuH7 cells to EC50 for Hepatitis C virus 1b CON1; type: toxicity, cell-based, Huh-7; details: read-out: Ratio CC50/EC50
[12] = Selectivity index, ratio of CC50 for human HuH7.5 cells to EC50 for HCV 1b/2a (Con-1/JFH-1); set-up: species or system Huh-7
Hepatitis C virus [13] = test: Antiviral activity against HCV 1b/2a (Con-1/JFH-1) infected in human Huh7.5 cells assessed as reduction of virus induced cytopathic effect by luciferase reporter assay; type: functional, organism-based, Hepacivirus hominis; details: Huh-7
[14] = Selectivity index, ratio of CC50 for human HuH7 cells to EC50 for HCV 2a (JFH1); set-up: species or system Huh-7
[15] = Selectivity index, ratio of CC50 for human HuH7.5 cells to EC50 for HCV 2a/2a (J6/JFH1); set-up: species or system Huh-7
Hepatitis C virus [16] = test: Antiviral activity against HCV 1a H77 infected in human Huh7.5 cells assessed as reduction of virus induced cytopathic effect by qRT-PCR; type: functional, cell-based, Hepacivirus hominis; details: genotype 1a H77, Huh-7
Hepatitis C virus [17] = test: Antiviral activity against HCV 1b Con1 infected in human Huh7.5 cells assessed as reduction of virus induced cytopathic effect by qRT-PCR; type: functional, cell-based, Hepacivirus hominis; details: genotype 1b Con1, Huh-7
[18] = Cytotoxicity against human Huh7.5 cells assessed as cell viability by cytoTox1 cell proliferation assay; type: cell-based, Huh-7.5
[19] = Cytotoxicity against human HuH7 cells assessed as cell viability by cytoTox1 cell proliferation assay; type: cell-based, Huh-7
[20] = Selectivity index, ratio of CC50 for human HuH7 cells to EC50 for HCV 1a/2a (H77/JFH1); set-up: species or system Huh-7
Hepatitis C virus [21] = test: Antiviral activity against HCV 2a/2a (J6/JFH1) infected in human Huh7.5 cells assessed as reduction of virus induced cytopathic effect by luciferase reporter assay; type: functional, organism-based, Hepacivirus hominis; details: Huh-7
Hepatitis C virus [22] = test: Antiviral activity against HCV 1a/2a (H77/JFH1) infected in human Huh7.5 cells assessed as reduction of virus induced cytopathic effect by luciferase reporter assay; type: functional, organism-based, Hepacivirus hominis; details: Huh-7
Hepatitis C virus [23] = test: Antiviral activity against HCV 2a (JFH1) infected in human Huh7 cells assessed as reduction of virus induced cytopathic effect by luciferase reporter assay; type: functional, organism-based, Hepacivirus hominis; details: Huh-7

`CCOC(=O)C1=C(C)N(c2ccccc2)/C(=C2\S/C(=N/c3nc(-c4c(C)n(C)n(-c5ccccc5)c4=O)cs3)N(c3ccccc3)C2=O)S1` gave an EC50 [1] of 68 µg/mL (≈ 96.2 µM), a CC50 [2] of over 100 µg/mL and a selectivity ratio [3] of over 1.5. It also gave a selectivity ratio [4] of over 1.1, a CC50 [5] of over 100 µg/mL and an EC50 [6] of 92 µg/mL (≈ 130 µM).

In the case of `Cc1c(-c2csc(/N=C3/S/C(=C4/SCC(=O)N4c4ccccc4)C(=O)N3c3ccccc3)n2)c(=O)n(-c2ccccc2)n1C`, the selectivity ratio [7] is reported as over 2, the EC50 [1] is reported as 23 µg/mL (≈ 36.1 µM) and the CC50 [2] is reported as over 100 µg/mL. It also gave a selectivity ratio [3] of over 4.2, a selectivity ratio [4] of over 4.3 and a CC50 [5] of over 100 µg/mL. For the same compound, the EC50 (Hepatitis C virus [8]) was 12.7 µM, the EC90 (Hepatitis C virus [8]) was over 20 µM and the EC50 [6] was 23 µg/mL (≈ 36.1 µM). The CC50 [9] was over 20 µM.

`CC(=O)C1=NN(c2ccccc2)/C(=C2\S/C(=N/c3nc(-c4c(C)n(C)n(-c5ccccc5)c4=O)cs3)N(c3ccccc3)C2=O)S1` gave a selectivity ratio [7] of over 36, a selectivity ratio [10] of 1 and a selectivity ratio [11] of over 43. The “Ratio CC50/EC50” value [12] was over 18, the EC50 (Hepatitis C virus [13]) was 1.09 µM and the EC90 (Hepatitis C virus [13]) was over 20 µM. The “Ratio CC50/EC50” value [14] was over 1, the “Ratio CC50/EC50” value [15] was over 13 and the EC50 (Hepatitis C virus [16]) was over 20 µM. It also gave an EC90 (Hepatitis C virus [16]) of over 20 µM, an EC50 (Hepatitis C virus [17]) of 0.46 µM and an EC90 (Hepatitis C virus [17]) of over 20 µM. The CC50 [18] was over 20 µM, the CC50 [19] was over 20 µM and the EC50 (Hepatitis C virus [8]) was 0.56 µM. The EC90 (Hepatitis C virus [8]) was 1.81 µM, the “Ratio CC50/EC50” value [20] was over 1 and the EC50 (Hepatitis C virus [21]) was 1.54 µM. For the same compound, the EC90 (Hepatitis C virus [21]) was over 20 µM, the EC50 (Hepatitis C virus [22]) was 13.6 µM and the EC90 (Hepatitis C virus [22]) was over 20 µM. For the same compound, the CC50 [9] was over 20 µM, the EC50 (Hepatitis C virus [23]) was 17.7 µM and the EC90 (Hepatitis C virus [23]) was over 20 µM.

In the case of `CC(=O)C1=NN(c2ccc(Cl)cc2)/C(=C2\S/C(=N/c3nc(-c4c(C)n(C)n(-c5ccccc5)c4=O)cs3)N(c3ccccc3)C2=O)S1`, the selectivity ratio [7] is reported as over 18, the EC50 (Hepatitis C virus [8]) is reported as 1.12 µM and the EC90 (Hepatitis C virus [8]) is reported as 14.4 µM. It also gave a CC50 [9] of over 20 µM.

`CC(=O)C1=NN(c2ccc(C)cc2)/C(=C2\S/C(=N/c3nc(-c4c(C)n(C)n(-c5ccccc5)c4=O)cs3)N(c3ccccc3)C2=O)S1` showed a selectivity ratio [7] of over 19, an EC50 (Hepatitis C virus [8]) of 1.04 µM and an EC90 (Hepatitis C virus [8]) of 4.76 µM. The CC50 [9] was over 20 µM.

With `COc1ccc(N2N=C(C(C)=O)S/C2=C2/S/C(=N/c3nc(-c4c(C)n(C)n(-c5ccccc5)c4=O)cs3)N(c3ccccc3)C2=O)cc1` the selectivity ratio [7] was over 7, the EC50 (Hepatitis C virus [8]) was 2.8 µM and the EC90 (Hepatitis C virus [8]) was 15.5 µM. The CC50 [9] was over 20 µM.

Compound `NC(=O)c1ncn([C@@H]2O[C@H](CO)[C@@H](O)[C@H]2O)n1` [RIBAVIRIN] has an EC50 [1] of 24 µg/mL (≈ 98.3 µM), a CC50 [2] of over 320 µg/mL and a selectivity ratio [3] of over 32. For the same compound, the selectivity ratio [4] was over 2, the CC50 [5] was over 320 µg/mL and the EC50 [6] was 16 µg/mL (≈ 65.5 µM).
